Measurements published in paper PMC10065799, “High-throughput profiling of sequence recognition by tyrosine kinases and SH2 domains using bacterial peptide display” (eLife, 2023).

Columns and labels:
[1] = system: Fes; experiment: pTyr-Var library bacterial peptide display kinase screen (enrichment scores); format: biochemical
[2] = system: EPHB2 kinase domain; experiment: as above; format: biochemical, human
[3] = target: c-Src SH2 domain (Homo sapiens, UniProt P12931); experiment: pTyr-Var library SH2 domain screen with SH2-dynabeads (enrichment scores); details: sheet c-Src
[4] = target: c-Src kinase domain (Homo sapiens, UniProt P12931); experiment: pTyr-Var library bacterial peptide display kinase screen (enrichment scores); format: biochemical;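 as to c-Src hit?: Hit requires p below 0.05 and at least twofold variant vs reference change plus filters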
[5] = system: AncSZ kinase domain; experiment: as above; format: biochemical;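 as to AncSZ hit?: Hit requires p below 0.05 and at least twofold variant vs reference change plus filters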
[6] = system: Fer kinase domain; experiment: as above; format: biochemical, mouse;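 as to Fer hit?: Hit requires p below 0.05 and at least twofold variant vs reference change plus filters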;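 as to screen: log2 fold change in enrichment of variant over reference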
[7] = system: FGFR1 kinase domain; experiment: as above; format: biochemical, human
[8] = system: Jak2; experiment: as above; format: biochemical, human
[9] = system: FGFR3 kinase domain; experiment: as above; format: biochemical, human
[10] = system: SHP2 C-SH2 domain; experiment: pTyr-Var library SH2 domain screen with SH2-dynabeads (enrichment scores)
[11] = target: T1, c-Abl kinase domain (Mus musculus, UniProt P00520); experiment: pTyr-Var library bacterial peptide display kinase screen (enrichment scores); format: biochemical;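 as to c-Abl hit?: Hit requires p below 0.05 and at least twofold variant vs reference change plus filters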;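 as to screen: log2 fold change in enrichment of variant over reference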
T1 sequence (P00520 242-493 limits assumed): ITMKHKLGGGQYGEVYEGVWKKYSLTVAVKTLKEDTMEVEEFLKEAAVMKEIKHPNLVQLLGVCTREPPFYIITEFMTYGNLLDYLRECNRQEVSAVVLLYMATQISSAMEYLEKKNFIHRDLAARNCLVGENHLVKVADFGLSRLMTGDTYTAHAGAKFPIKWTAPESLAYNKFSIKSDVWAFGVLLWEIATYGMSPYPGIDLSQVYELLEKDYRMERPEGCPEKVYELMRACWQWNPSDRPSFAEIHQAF

[12] = system: Hck kinase domain; experiment: as above; format: biochemical, human
[13] = system: EPHB1 kinase domain; experiment: as above; format: biochemical, human;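 as to screen: log2 fold change in enrichment of variant over reference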
[14] = system: MERTK kinase domain; experiment: as above; format: biochemical, human
[15] = system: Fyn kinase domain; experiment: as above; format: biochemical, human
[16] = system: Grb2 SH2 domain; experiment: pTyr-Var library SH2 domain screen with SH2-dynabeads (enrichment scores)
[17] = system: 4G10 Platinum pan-phosphotyrosine antibody; experiment: Phosphorylated pTyr-Var library selection with biotinylated pan-phosphotyrosine antibody; format: binding, mouse; details: enrichment score, sheet SH2-vs-peptide
Procedure: After the desired time of library phosphorylation, kinase activity was quenched with 25 mM EDTA and the cells were washed with PBS containing 0.2% BSA. Kinase-treated cells were then labeled with a 1:1000 dilution of biotinylated 4G10 Platinum anti-phosphotyrosine antibody (Millipore) for an hour on ice and washed with PBS containing 0.1% BSA and 2 mM EDTA (isolation buffer). The cells were finally resuspended in PBS containing 0.1% BSA. The phosphorylated, antibody-labeled cells were then mixed with magnetic beads from Dynabeads FlowComp Flexi kit (Invitrogen), at a ratio of 37.5 μL of washed beads per 50 μL of cell suspension, diluted into 450 μL of isolation buffer. The suspension was rotated at 4 °C for 30 minutes, then 375 μL of isolation buffer was added and the beads were separated from the bulk solution on a magnetic rack. The beads were washed once with 1 mL of isolation buffer, and then the supertantant were removed by aspiration. […] The bead/lysate mixture was centrifuged to pellet the beads and the mixture was stored at -20 °C.

[18] = variant versus reference peptide
[19] = mean of log2(variant) minus mean of log2(reference)
[20] = mean of log2 enrichment of variant peptide, n = 4
[21] = pTyr-Var library, variant peptide enrichment, mean of n = 4
[22] = mean of log2 of enrichment over R1-R4
[23] = pTyr-Var library, enrichment score, replicate 1
[24] = pTyr-Var library, enrichment score, replicate 3
[25] = pTyr-Var library, enrichment score, replicate 4
[26] = variant versus reference peptide, significant hit TRUE/FALSE
[27] = mean of log2 enrichment of variant peptide, n = 5
[28] = pTyr-Var library, variant peptide enrichment, mean of n = 5

## LHVGFYESDVM [A2M_Y708_R704H]
[1]; mean of log2 of enrichment over R1-R6
  Fes mean of log2(enrichment): 0.6236
[1]; [18]
  Fes difference (mean log2 variant - mean log2 reference): -0.8632
[2]; [19]
  difference: 0.5535
[2]; [20]
  mean of log2(variant): 0.1669
[2]; [21]
  var. mean: 1.142
[3]; [19]
  difference: 0.05278
[3]; mean of log2 enrichment of variant peptide, R1-R3
  mean of log2(variant): 2.054
[3]; variant peptide, mean of R1-R3
  var. mean: 4.231
[4]; [22]
  c-Src mean of log2(enrichment): -0.6428
[4]; [23]
  c-Src enrich. R1: 0.8102
[4]; [24]
  c-Src enrich. R3: 0.4328
[4]; [25]
  c-Src enrich. R4: 0.9633
[4]; [18]
  c-Src difference (mean log2 variant - mean log2 reference): -1.034
[4]; [26]
  c-Src hit?: FALSE
[5]; mean of log2 of enrichment over R1-R5
  AncSZ mean of log2(enrichment): 0.1983
[5]; [23]
  AncSZ enrich. R1: 0.795
[5]; [24]
  AncSZ enrich. R3: 1.048
[5]; [25]
  AncSZ enrich. R4: 1.095
[5]; pTyr-Var library, enrichment score, replicate 5
  AncSZ enrich. R5: 1.306
[5]; [18]
  AncSZ difference (mean log2 variant - mean log2 reference): -1.317
[5]; [26]
  AncSZ hit?: FALSE
[6]; [22]
  Fer mean of log2(enrichment): 0.8907
[6]; [23]
  Fer enrich. R1: 2.223
[6]; [24]
  Fer enrich. R3: 2.063
[6]; [25]
  Fer enrich. R4: 1.22
[6]; sheet "Fer", value of the variant peptide against its reference peptide in the pTyr-Var library screen with Fer
  Screen: 0.2498
[6]; [18]
  Fer difference (mean log2 variant - mean log2 reference): 0.2498
[6]; [26]
  Fer hit?: FALSE
[7]; [19]
  difference: -0.559
[7]; [27]
  mean of log2(variant): -0.3446
[7]; [28]
  var. mean: 0.8886
[8]; mean of log2 of enrichment over R1-R3
  Jak2 mean of log2(enrichment): 0.3892
[8]; [23]
  Jak2 enrich. R1: 1.336
[8]; [24]
  Jak2 enrich. R3: 1.016
[8]; [18]
  Jak2 difference (mean log2 variant - mean log2 reference): -0.5933
[8]; [26]
  Jak2 hit?: FALSE
[9]; [19]
  difference: -1.255
[9]; [27]
  mean of log2(variant): 0.01497
[9]; [28]
  var. mean: 1.21
[10]; SHP2-C SH2, mean of log2(variant) minus mean of log2(reference)
  difference: -0.5777
[10]; SHP2-C SH2, mean of log2 enrichment of variant, R1-R3
  mean of log2(variant): -0.5659
[10]; SHP2-C SH2, variant versus reference significant hit call
  hit?: FALSE
[10]; variant peptide enrichment score, SHP2-C SH2, mean of R1-R3
  var. mean: 0.7213
[11]; fig5-data2, sheet "Abl", Screen for the variant/reference peptide pair, pTyr-Var library
  Screen: -1.318
[11]; [22]
  c-Abl mean of log2(enrichment): -0.4279
[11]; [23]
  c-Abl enrich. R1: 0.51
[11]; [24]
  c-Abl enrich. R3: 0.9195
[11]; [25]
  c-Abl enrich. R4: 0.7727
[11]; [26]
  c-Abl hit?: FALSE
[12]; [23]
  Hck enrich. R1: 0.9181
[12]; [24]
  Hck enrich. R3: 0.8034
[12]; [25]
  Hck enrich. R4: 0.2649
[12]; [26]
  Hck hit?: FALSE
[13]; [19]
  difference: -0.4797
[13]; [20]
  mean of log2(variant): 0.4103
[13]; [21]
  var. mean: 1.406
[13]; sheet EPHB1, effect of the variant peptide relative to its reference peptide in the pTyr-Var library screen (enrichment scores)
  Screen: -0.4797
[14]; [19]
  difference: -1.201
[14]; [20]
  mean of log2(variant): 0.1586
[14]; [21]
  var. mean: 1.154
[15]; [22]
  Fyn mean of log2(enrichment): -0.6247
[15]; [23]
  Fyn enrich. R1: 1.119
[15]; [24]
  Fyn enrich. R3: 0.683
[15]; [25]
  Fyn enrich. R4: 0.4956
[15]; [18]
  Fyn difference (mean log2 variant - mean log2 reference): -0.4761
[15]; [26]
  Fyn hit?: FALSE
[16]; Grb2 SH2, mean of log2(variant) minus mean of log2(reference)
  difference: 0.0213
[16]; Grb2 SH2, mean of log2 enrichment of variant, R1-R3
  mean of log2(variant): -0.08185
[16]; Grb2 SH2, variant versus reference significant hit call
  hit?: FALSE
[16]; variant peptide enrichment score, Grb2 SH2, mean of R1-R3
  var. mean: 0.9505
[17]
  4G10 (mean): 1.221
